In paper PMC8296708, “The pan HDAC inhibitor Givinostat improves muscle function and histological parameters in two Duchenne muscular dystrophy murine models expressing different haplotypes of the LTBP4 gene” (Skeletal Muscle, 2021):

Key:
mdx mouse model = tested on: mdx mouse model; set-up: method as in PMID 21137017; conditions: i.p.; cited from earlier work
[1] = set-up: method as in printed; conditions: mice; ref not given; cited from earlier work
D2.B10 mice [2] = assay: Treadmill run to exhaustion test in D2.B10 mice; type: in vivo, mouse (D2.B10-Dmd^mdx/J); conditions: Deflazacort, prednisone 1 mg/kg, lower doses of Givinostat
Source text: (§1) For the efficacy studies, C57BL/10 J (Stock No: 000665) wild type (wt) and C57BL/10ScSn-Dmd^mdx/J (Stock No: 001801) 7–8-week-old male mice, DBA/2J wt (Stock No: 000671), and D2.B10-Dmd^mdx/J (Stock No: 013141) 6–7-week-old male mice were purchased from The Jackson Laboratories (Bar Harbor, Maine, USA). After 5 days of acclimatization in the animal facility, mice were randomized into different treatment groups based on their BW. C57BL/10J wt mice were assigned to the naive wt group (healthy mice that received no treatment, but were subjected to functional tests), whereas mdx mice were assigned to the following groups (9 mice/group; 4–5 mice/cage): naive mdx (mice that received no treatment, but were subjected to functional tests), vehicle (0.5% methylcellulose, p.o.), and Givinostat (0.1, 0.3, 1, 5, 10, 25, and 37.5 mg/kg, p.o.). DBA/2J mice were assigned to the naive wt group (healthy mice that received no treatment, but were subjected to functional tests), whereas D2.B10 mice were assigned to the following groups (12–13 mice/group; 4–5 mice/gage): vehicle (filtered tap water, p.o.), Givinostat (1, 5, 10, and 37.5 mg/kg, p.o.), prednisone 1 mg/kg, and Deflazacort 1 mg/kg (i.p.).
(§2) In the efficacy studies, Givinostat powder (ITF2357) was suspended in 0.5% methylcellulose (Sigma-Aldrich) and administered p.o. (by gavage) at the doses of 0.1, 0.3, 1, 5, 10, 25, and 37.5 mg/kg qdx5x15weeks (administration volume per mouse: 10 mL/kg) in mdx mice (see Additional Figure 1A). Vehicle-treated mdx mice received 0.5% methylcellulose suspension. Givinostat suspension was stored at + 4 °C, and it was freshly prepared every 7 days. Probably due to the impairment of their tongue and masticatory muscles, the oral gavage procedure turned out to be difficult to perform, and chronic treatment of D2.B10 mice by this route was considered to bear a high risk of damaging the esophagus. For this reason, Givinostat was administered in the drinking water. Givinostat was dissolved in filtered tap water and was administered in drinking water (throughout 24 h) for 105 days at the dose of 1, 5, 10, and 37.5 mg/kg/day, according to a daily estimate of water consumption of 4 ml/mouse/day. Water consumption was weekly monitored throughout the entire duration of the study weighing the bottle of each cage (maximum 4 mice per cage). Prednisone and Deflazacort powder (Sigma-Aldrich) was dissolved in 2% DMSO (Sigma-Aldrich) and diluted in sterile saline on injection days. Both drugs were administered weekly (for 15 weeks) by i.p. injection at the dose of 1 mg/kg in a volume of 10 mL/kg. Givinostat and steroid treatments started on days 7 and 9 of the experimental plan, respectively (see Additional Figure 1B). All mice were monitored daily and tolerability was evaluated on the basis of BW and clinical signs.
Run to exhaustion performance of mdx and D2.B10 mice was evaluated every 14 or 21 days, respectively, using a treadmill apparatus (Ugo Basile SRL, Italy). The exhaustion protocol consisted in an initially horizontal running at 5 m/min for 5 min after which the speed was increased 1 m/min every minute until exhaustion (the procedure was compliant with the standard operating procedures of TREAT–NMD Neuromuscular Network). […]
After taking baseline readings for behavioral assays (FNmax and distance run by the animals), mice were re-randomized based on these two parameters, also considering the previous randomization performed on their BW. […]

D2.B10 mice [3] = assay: Grip strength test (FNmax) in D2.B10 mice; type: in vivo, mouse (D2.B10-Dmd^mdx/J)
Source text: as §1, §2
(§3) In both efficacy studies, the effectiveness of treatments was evaluated every week by measuring the forelimb strength by a grip strength meter (Ugo Basile SRL, Italy). BW of mdx (see Additional Figure 2) and D2.B10 mice (see Additional Figure 3) was also measured in order to normalize the absolute grip strength of each mouse with respect to its BW. The protocol provides 5 measurements for each mouse (the procedure was compliant with the standard operating procedures of TREAT–NMD Neuromuscular Network). The highest recorded value of maximal normalized strength (FNmax) obtained for each mouse at all the time points (from T0 to T15) was used for further analysis.
After taking baseline readings for behavioral assays (FNmax and distance run by the animals), mice were re-randomized based on these two parameters, also considering the previous randomization performed on their BW.
The grip strength and run to exhaustion tests were performed during the light-cycle phase, in the early hours of the morning (8:00–11:30 am). […]

D2.B10 mice [4] = assay: Muscle fibrosis by Sirius Red staining in D2.B10 mice; type: in vivo, mouse (D2.B10-Dmd^mdx/J)
Source text: (§4) Tibialis anterior (TA), gastrocnemius (GAS), DIA, and heart were collected from mice maintained under isoflurane anesthesia and sacrificed by cervical dislocation. These muscles were collected from C57BL/10J wt and mdx (5 mice/group) at the end of treatments and from DBA/2J wt and D2.B10 mice (5 mice/group) at two different time points to be examined by a pathologist (for more details see Additional Table 1). Due to the results obtained by the functional tests, muscles from only some treatment groups were analyzed in both DMD models (see Additional Table 1). All the collected muscles were fixed in 10% buffered formalin solution (Bio-optica, Milan, Italy) at + 4 °C for at least 48 h. After fixation, muscular samples were transversely trimmed, caged, and paraffin embedded overnight with an Automated Vacuum Tissue Processor Floor (ETP, Histo-Line Laboratories) and included in paraffin blocks. Serial transverse cross-sections (4 μm thick) were cut with a microtome (Leica RM 2255), collected onto uncoated glass slides, and stained using a standard protocol for hematoxylin and eosin (Mayer hematoxylin & Aqueous G Eosin 1%, Bio-Optica) and Sirius Red staining (Direct Red 80, Sigma-Aldrich). For the image analysis and quantitation, hematoxylin and eosin- and Sirius Red-stained slides were examined with an Olympus BX51 light microscope. From each sample, 1 to 3 random microphotographs at the magnification of × 4 and × 10 (TA, GAS and heart) or × 20 (DIA) were collected using Image-Pro Plus system. The digital images were processed by a pathologist using ImageJ software (U.S. National Institutes of Health, Bethesda, MD, USA). To quantify CSA and centralized nuclei (%) on hematoxylin and eosin-stained sections, one hundred myofibers were manually measured for each muscle/mouse using a tablet pen (Wacom Intruos) and analyzed by the ImageJ software after a linear calibration of 150 μm. The fibrotic area, corresponding to the area stained in red, was compared to the total area of the tissue section, and the results were expressed as percentage fibrosis. The % of fibrosis of muscles in the different treatment groups was expressed by averaging the three values obtained from each muscle.

[5] = Body weight of D2.B10 mice; type: in vivo, mouse (D2.B10-Dmd^mdx/J); conditions: mouse, in vivo
Procedure: as §2, with “Givinostat and steroid treatments started on days 7 and 9 of the experimental plan, respectively (see Additional Figure 1B).” left out
as §3, with “The protocol provides 5 measurements for each mouse (the procedure was compliant with the standard operating procedures of TREAT–NMD Neuromuscular Network).” left out

D2.B10 mice [6] = assay: Myofiber cross-sectional area (CSA) in D2.B10 mice; type: in vivo, mouse (D2.B10-Dmd^mdx/J); conditions: D2.B10 muscles, 1 mg/kg i.p. weekly
Source text: as §4
The deciles of the CSA of the animals treated with Givinostat at the different doses were plotted against the corresponding deciles of the vehicle-treated mice and a linear regression analysis was performed on natural [CSAtreated = b CSAcontrol + a] and log_transformed data [log(CSAtreated) = log(a) + b log(CSAcontrol)]. […] In case of untransformed data, this means that the effect of Givinostat treatment is additive and any decile of the CSAtreatment distribution may be derived from the control data summing up a constant quantity (S) to each fiber AREA of the control group (CSAtreated = CSAcontrol + S). In case of log_transformed data, the effect of Givinostat has to be considered as a multiplicative factor on any generic fiber of the muscle under evaluation, whose size, after the treatment, results K times larger in comparison to the control group value (CSAtreated […] = K × CSAcontrol, with K = 10^a). The S or K parameter values were then determined through an iterative estimation procedure, based on sum of squares (SSQ) minimization, directly comparing the CSA distribution observed in treated animals with that obtained summing up the S value or multiplying by K the CSA values of the control group.

[7] = set-up: method as in PMID 15269190; conditions: mice, i.p. dosing; cited from earlier work

Compound: O=C(CCCCCCC(=O)Nc1ccccc1)NO [Vorinostat]
- Dose of peak functional and histologic effects (bell-shaped dose-response curve) (mdx mouse model): 1.2 mg/kg
- Oral bioavailability [1]: very poor oral bioavailability

Compound: CC(=O)OCC(=O)[C@@]12N=C(C)O[C@@H]1C[C@H]1[C@@H]3CCC4=CC(=O)C=C[C@]4(C)[C@H]3[C@@H](O)C[C@@]12C [Deflazacort]
- Effect on distance run, significance (D2.B10 mice [2]): not statistically significant
- Effect of steroid on FNmax in comparison (D2.B10 mice [3]; 1 mg/kg i.p. weekly, all the treatment period): lower and not significantly different from prednisone
- Time interval of significant FNmax improvement (D2.B10 mice [3]; Deflazacort 1 mg/kg i.p. weekly, Givinostat 1 mg/kg): from day 28 to day 90
- Effect of steroid on fibrosis, summary (D2.B10 mice [4]; 1 mg/kg i.p. weekly): effective only in TA
- Reduction of fibrosis in DIA (D2.B10 mice [4]; T8): no significant effect
- Reduction of fibrosis in TA (D2.B10 mice [4]; T8, Givinostat 37.5 mg/kg, steroids 1 mg/kg, vs vehicle): about 22%
- Effect on fibrosis in GAS (D2.B10 mice [4]; T16): No significant effect
- Body weight vs vehicle-treated mice [5]: no significant differences
- Effect of steroid on cross-sectional area and centralized nuclei (D2.B10 mice [6]): unable to affect cross-sectional area or the number of centralized nuclei

Compound: CC(/C=C/C(=O)NO)=C\[C@@H](C)C(=O)c1ccc(N(C)C)cc1 [TSA, trichostatin A]
- Half-life [7]: 6.3 min
- Peak plasma concentrations [7]: micromolar
